Measured values published in PMC11881906, “Development of xanthone derivatives as effective broad-spectrum antimicrobials: Disrupting cell wall and inhibiting DNA synthesis” (Science Advances, 2025).

Experiments:
[1] = system: P. aeruginosa ATCC 9027; assay: Serial passage resistance induction; format: cell-based, Pseudomonas aeruginosa; details: 20-day passages at 0.5× MIC
Description: (§1) The bacteria were grown in a medium containing 0.5× MIC of each compound to prepare the bacterial suspension for the next MIC determination. The MICs were then recorded after incubation at 37°C for 24 hours. Daily passages were continued until the initial MIC increased by more than fourfold. The stability of acquired resistance was investigated by MIC determination and repeated for 20 days.

[2] = system: E. coli ATCC 25922; assay: RNA-seq transcriptome response; format: cell-based, Escherichia coli; details: 4× MIC, 2 hours
Description: After exposure, 1-ml aliquots of cells were immediately pelleted at 4°C by centrifugation for 2 min at 2000 rpm. The supernatants were removed and immediately frozen in liquid nitrogen. The samples were stored at −80°C for later total RNA isolation. Total RNA was extracted using the bacterial RNA kit (Omega Bio-Tek, USA) according to the manufacturer’s instructions. The RNA integrity number values were obtained to assess RNA quality using an Agilent Genomics 2200 Tape Station instrument.
A total amount of 2 to 5 ng of the RNA per sample was executed as the input material to construct each cDNA library for RNA-seq using the NEBNext Ultra Directional RNA Library prep kit from Illumina. The quality of the resulting libraries was checked using Agilent High Sensitivity DNA chips to ensure proper library size distribution and the absence of small adapters.
Read mapping was aligned using Bowtie2 ([74]). HTSeq v0.6.1 was used for quantification of expression levels ([75]). DESeq2 on the R package (v1.12.4) was used to calculate DEGs. Differential expression was computed using edgeR: exactTest for each treatment versus the untreated control ([76]). The E. coli database used for mapping was GCF_017357505.1_ASM1735750v1_genomic.fna. Both the GO and KEGG (KEGG Ortholog database) enrichment analyses were done with the Fisher’s exact test. All P values were adjusted with the Benjamini-Hochberg procedure to generate false discovery rates (adjusted P values). GO enrichment analysis was carried out using the clusterProfiler package on the R platform ([77]). KEGG pathway mapping and figure generation were performed with the PathView website ([78]). COG of protein databases were searched with an E value of 1e^-5. For hierarchal clustering analysis of gene expression, the gene expression levels were normalized to z scores of log10 (FPKM + 1), where FPKM is fragments per kilobase per million. For hierarchal clustering analysis of the regulation of transcription factors, the unweighted pair group method with arithmetic mean (UPGMA) method was used as the clustering method. […] Volcano plots were generated by plot_volcano from soothsayer (https://github.com/jolespin/soothsayer) in Python v.3.6.6. Directed networks were constructed and plotted using NetworkX and Matplotlib Python packages, respectively. Hierarchical clustering analysis and heatmap calculation were performed with the pheatmap package on the R platform. The umap package on the R platform was used for uniform manifold approximation and projection (UMAP) analysis of FPKM vectors of each transcriptome. The figures were created via the ggplot2 package ([79]).

[3] = system: S. aureus ATCC 29213; assay: Serial passage resistance induction; format: cell-based, Staphylococcus aureus; details: 20-day passages at 0.5× MIC
Description: as §1

O=C(O)c1cn(C2CC2)c2cc(N3CCNCC3)c(F)cc2c1=O [CPF, ciprofloxacin, reference compound]
increase in MIC values during passages [1]: ~64 fold
genes expressed [2]: 4682 genes
Log2FC dnaE (DNA polymerase III subunit alpha) ([2]; vs untreated): 1.7739
Log2FC dnaN (DNA polymerase III subunit beta) ([2]; vs untreated): 3.0865
Log2FC dnaQ (DNA polymerase III subunit epsilon) ([2]; vs untreated): 1.3670
Log2FC dnaT (primosomal protein DnaT) ([2]; vs untreated): 2.2444
Log2FC dnaX (DNA polymerase III subunit gamma/tau) ([2]; vs untreated): 1.7268
Log2FC gyrA (DNA topoisomerase (ATP-hydrolyzing) subunit A) ([2]; vs untreated): 2.2544
Log2FC gyrB (DNA topoisomerase (ATP-hydrolyzing) subunit B) ([2]; vs untreated): 2.4048
Log2FC holB (DNA polymerase III subunit delta') ([2]; vs untreated): 1.9890
Log2FC holD (DNA polymerase III subunit psi) ([2]; vs untreated): 2.4551
Log2FC parC (DNA topoisomerase IV subunit A) ([2]; vs untreated): 1.5215
Log2FC parE (DNA topoisomerase IV subunit B) ([2]; vs untreated): 2.4557
Log2FC priA (primosomal protein N') ([2]; vs untreated): 2.8529
Log2FC priB (primosomal replication protein N) ([2]; vs untreated): 3.5288
Log2FC priC (primosomal replication protein N'') ([2]; vs untreated): 1.7101
Log2FC recA (recombinase RecA) ([2]; vs untreated): 6.2751
Log2FC recF (DNA replication/repair protein RecF) ([2]; vs untreated): 2.2046
Log2FC recG (ATP-dependent DNA helicase RecG) ([2]; vs untreated): 1.1384
Log2FC recJ (single-stranded-DNA-specific exonuclease RecJ) ([2]; vs untreated): 1.9882
Log2FC recO (DNA repair protein RecO) ([2]; vs untreated): 1.9736
Log2FC recR (recombination mediator RecR) ([2]; vs untreated): 1.8874
Log2FC ruvA (Holliday junction branch migration protein RuvA) ([2]; vs untreated): 2.8598
Log2FC ruvB (Holliday junction branch migration DNA helicase RuvB) ([2]; vs untreated): 3.4475
Log2FC ruvC (crossover junction endodeoxyribonuclease RuvC) ([2]; vs untreated): 1.8052
Log2FC ssb1 (single-stranded DNA-binding protein SSB1) ([2]; vs untreated): 2.6468
down-regulated genes ([2]; vs untreated): 130 genes
up-regulated genes ([2]; vs untreated): 2246 genes
differentially expressed genes ([2]; vs untreated, P < 0.05, absolute log2 fold change > 1): 2376 genes

CCn1cc(C(=O)O)c(=O)c2cc(F)c(N3CCNCC3)cc21 [norfloxacin, reference compound]
increase in MIC values during passages [3]: approximately 16 fold
